# Assay results: patent US7416736B2, “Antimicrobial compositions” (Janssen Pharmaceutica N.V., priority 2001, dated 2008)
# How the values were obtained:
# Assay type in all cases: cell-based
# [1] = system: Penicillium funiculosum IFO 6345; assay: MIC against fungi on potato dextrose agar (Working Example 2); details: weight ratio 0:1 (second component alone), 7 days at 28° C.; for MIC: Talaromyces funiculosus, IFO6345, 168 h, read-out: Minimum inhibitory concentration (ppm) against Penicillium funiculosum
# Experimental: (§1) By the following working examples, we describe in greater detail the antimicrobial effectiveness of the antimicrobial compositions of this invention. The term “MIC” as used in these working examples refers to the minimum inhibitory concentration (ppm) of the active ingredient in the antimicrobial compositions. […] The spore suspensions for inoculation used in working example 2 were prepared as follows. Two fungi, Aspergillus niger IFO 6341 and Penicillium funiculosum IFO 6345, were cultured on two potato dextrose agar culture media not containing any biocides, and spores were formed. Next, said fungus spores were dispersed in disinfectant water to which 0.005% lubricant had been added, and two spore suspensions for inoculation were thus prepared. […] Next, test culture media were prepared by adding each of the varying diluted aqueous solutions (0.3 ml) of these antimicrobial compositions to a potato dextrose agar culture medium (15 ml). Each of these test culture media was inoculated with the above spore suspensions for inoculation (1 ml), and after culturing for 7 days at 28° C. Then, the presence or absence of fungus growth on each culture medium was observed visually.
# [2] = system: Aspergillus niger IFO 6341; assay: as above; details: weight ratio 0:1 (second component alone), 7 days at 28° C.; for MIC: Aspergillus niger, IFO6341, 168 h, read-out: Minimum inhibitory concentration (ppm) against Aspergillus niger
# Experimental: as §1
# [3] = system: Escherichia coli IFO 3972; assay: MIC against bacteria in nutrient broth (Working Example 1); details: weight ratio 0:1 (second component alone), 24 hours at 30° C.
# Experimental: (§2) By the following working examples, we describe in greater detail the antimicrobial effectiveness of the antimicrobial compositions of this invention. The term “MIC” as used in these working examples refers to the minimum inhibitory concentration (ppm) of the active ingredient in the antimicrobial compositions. […] The bacterial suspensions for inoculation used in working example 1 were prepared as follows. […] Next, test culture media were prepared by adding each of the varying diluted aqueous solutions (0.2 ml) of the antimicrobial compositions to a nutrient broth culture medium (10 ml). Each of these test culture media was inoculated with the above bacterial suspensions for inoculation (0.1 ml), and after culturing for 24 hours at 30° C. Then, the presence or absence of bacteria growth was assessed by visually observing the turbidity of the culture medium.
# [4] = system: Staphylococcus aureus IFO 12732; assay: as above; details: weight ratio 0:1 (second component alone), 24 hours at 30° C.
# Experimental: as §2
# [5] = system: Chlorella pyrenoidosa NIES 226; assay: MIC against algae on Bold's Basal agar (Working Example 3); details: weight ratio 0:1 (second component alone); 14 days at 25° C. and 1500 lux
# Experimental: By the following working examples, we describe in greater detail the antimicrobial effectiveness of the antimicrobial compositions of this invention. The term “MIC” as used in these working examples refers to the minimum inhibitory concentration (ppm) of the active ingredient in the antimicrobial compositions. […] The algae suspensions for inoculation used in working example 3 were prepared as follows. Bold's Basal liquid culture medium (50 ml) was inoculated with Chlorella pyrenoidosa NIES 226, it was shake-cultured for 14 days at 25° C., and algae suspensions for inoculation was thus prepared. […] Next, test culture media were prepared by adding each of the varying diluted aqueous solutions (0.1 ml) of these antimicrobial compositions to Bold's Basal agar culture medium (15 ml). Each of these test culture media was inoculated with the above algae suspensions for inoculation (1 ml), and after culturing for 14 days at 25° C. and 1500 lux. Then, the presence or absence of algae growth on each culture medium was observed visually. […] Table 5 lists the MIC, for algae, of the antimicrobial composition of each weight ratio.
"MIC ([3]; Escherichia coli, IFO3972, read-out: Minimum inhibitory concentration (ppm) against Escherichia coli) [µg/mL]","MIC ([4]; Staphylococcus aureus, IFO12732, read-out: Minimum inhibitory concentration (ppm) against Staphylococcus aureus) [µg/mL]",Compound,Minimum inhibitory concentration (ppm) against Penicillium funiculosum [1] [ppm],Minimum inhibitory concentration (ppm) against Aspergillus niger [2] [ppm],Minimum inhibitory concentration (ppm) against Escherichia coli [3] [ppm],Minimum inhibitory concentration (ppm) against Staphylococcus aureus [4] [ppm],Minimum inhibitory concentration (ppm) against Chlorella pyrenoidosa [5] [ppm],MIC [1] [µg/mL],MIC [2] [µg/mL]
–,–,"[Cu+2].[O-][n+]1ccccc1[S-].[O-][n+]1ccccc1[S-] [d, Copper 2-pyridine thiol-1-oxide]",1,400,200,10,100,–,–
–,–,"CCCCCCCCn1sccc1=O [i, 2-(n-octyl)-3(2H)-isothiazolone]",–,–,–,–,20,0.2,0.4
1000,20,"Clc1ccc(OCOCC#CI)cc1 [b, 1-chloro-4-[[(3-iodo-2-propynyl)oxy]methoxy] benzene]",–,–,–,–,10,4,1
–,–,"[Na+].[O-][n+]1ccccc1[S-] [e, 2-pyridine thiol-1-oxide sodium salt]",2,400,200,10,40,–,–
–,–,"CSc1nc(NC2CC2)nc(NC(C)(C)C)n1 [g, 2-methylthio-4-t-butyl amino-6-cyclopropyl amino-s-triazine]",–,–,–,–,0.1,–,–
–,–,"CCCCNC(=O)OCC#CI [h, 3-iodo-2-propynyl butylcarbamate]",–,–,–,–,40,1,1
–,–,"[O-][n+]1ccccc1SSc1cccc[n+]1[O-] [f, 2,2-dithio-bis(pyridine-1-oxide)]",1,10,10,4,10,–,–
–,–,"[O-][n+]1ccccc1[S-].[O-][n+]1ccccc1[S-].[Zn+2] [c, Zinc 2-pyridine thiol-1-oxide]",1,10,40,40,20,–,–
